The numbers were not newly measured in patent US7838561B2, “Method for preventing or treating cardiac hypertrophy” (Wisconsin Alumni Research Foundation, priority 2004, dated 2010), which cites them from elsewhere.

pKd: −log10 of the molar value. “Also recorded” adds a separate entry of the source. Where two headings read alike, the source gives them in different places.

Data set [1] concerns the target T1, RARα (Homo sapiens, UniProt P10276).
T1 sequence (P10276 1-462): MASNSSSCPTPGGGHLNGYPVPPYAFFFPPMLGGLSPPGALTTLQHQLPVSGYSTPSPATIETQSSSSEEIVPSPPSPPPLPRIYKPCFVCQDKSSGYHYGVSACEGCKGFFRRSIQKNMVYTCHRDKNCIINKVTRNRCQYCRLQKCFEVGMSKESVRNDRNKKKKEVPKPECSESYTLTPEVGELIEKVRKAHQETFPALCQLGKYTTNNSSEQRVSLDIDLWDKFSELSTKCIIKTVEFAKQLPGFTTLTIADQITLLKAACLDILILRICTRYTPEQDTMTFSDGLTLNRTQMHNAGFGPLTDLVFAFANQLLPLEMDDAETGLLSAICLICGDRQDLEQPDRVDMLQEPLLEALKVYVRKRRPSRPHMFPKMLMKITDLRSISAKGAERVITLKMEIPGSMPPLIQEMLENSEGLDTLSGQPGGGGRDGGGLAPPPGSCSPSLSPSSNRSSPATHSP

Data set [2] deals with T2, RARβ (Homo sapiens, UniProt P10826).
T2 sequence (P10826 1-455): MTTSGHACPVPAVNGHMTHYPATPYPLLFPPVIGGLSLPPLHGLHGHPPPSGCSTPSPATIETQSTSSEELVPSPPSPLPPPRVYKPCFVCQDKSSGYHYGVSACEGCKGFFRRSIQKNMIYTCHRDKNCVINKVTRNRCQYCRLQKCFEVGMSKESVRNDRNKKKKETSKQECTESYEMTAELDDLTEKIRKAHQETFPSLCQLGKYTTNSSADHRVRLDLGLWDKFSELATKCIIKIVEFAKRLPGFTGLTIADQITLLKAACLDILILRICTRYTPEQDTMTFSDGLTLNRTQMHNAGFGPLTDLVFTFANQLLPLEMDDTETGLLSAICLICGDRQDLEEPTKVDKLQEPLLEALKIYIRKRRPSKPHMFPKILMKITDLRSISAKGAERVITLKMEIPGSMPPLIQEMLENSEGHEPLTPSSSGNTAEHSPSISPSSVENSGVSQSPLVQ

Data set [3] deals with T3, RARγ (Homo sapiens, UniProt P13631).
T3 sequence (P13631 1-454): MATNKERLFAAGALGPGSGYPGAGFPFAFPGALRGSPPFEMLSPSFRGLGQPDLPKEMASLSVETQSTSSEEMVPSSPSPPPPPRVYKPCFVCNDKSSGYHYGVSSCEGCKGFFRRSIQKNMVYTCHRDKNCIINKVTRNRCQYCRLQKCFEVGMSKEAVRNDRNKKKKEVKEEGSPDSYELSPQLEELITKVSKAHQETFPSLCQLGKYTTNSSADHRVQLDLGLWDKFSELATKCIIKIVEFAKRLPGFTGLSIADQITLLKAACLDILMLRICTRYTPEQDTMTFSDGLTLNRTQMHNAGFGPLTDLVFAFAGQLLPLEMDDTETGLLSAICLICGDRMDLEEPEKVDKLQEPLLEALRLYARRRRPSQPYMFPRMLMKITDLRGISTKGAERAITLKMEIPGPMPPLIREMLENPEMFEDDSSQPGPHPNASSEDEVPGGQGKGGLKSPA

Data set [4] deals with RARs.
The conditions of data set [5]: topical, 0, 1.44, 7.2, 36.0 μmol/kg/day, mice.
Data set [6] relates to human cervical cancer cell line ECE16-1.
Data set [7] concerns mouse limb bud chondrocytes.
Data set [8] relates to bone marrow granulocytic precursors. The settings on record: oral, 0.5 mg/kg/day for 10 days, mice.
For data set [9], the system named is prostate carcinoma cell lines.
For data set [10], the target named is T1, RARα. This is another data set of the same source.
For data set [11], the target named is T2, RARβ. This is another data set of the same source.
For data set [12], the target named is T3, RARγ. The source holds these as a separate data set.
For data set [13], the system named is acute promyelocytic leukemia. The settings on record: RA triggers differentiation.
Data set [14] concerns RAR and RXR.
The conditions of data set [15]: in vivo.
Data set [16] deals with RBP (Homo sapiens, UniProt P02753).
Data set [17] relates to nuclear retinoid receptors.
For data set [18], the system named is RARs. The settings on record: in vitro.
Data set [19] relates to AP-1.
Data set [20] deals with gastrulation-stage zebrafish embryo.
The conditions of data set [21]: ip, 15 mg/kg/d.
The test system of data set [22] is rabbit HIG-82 synovial fibroblasts. The conditions noted are these: 0.01 to 10 μM.
For data set [23], the system named is mammary epithelial cell. The settings on record: 1 μM.
For data set [24] the following is noted: 20 mg/kg/day, 7 days, subcutaneous, rats.
Data set [25] concerns testicular cells.
Data set [26] concerns testicular cells. The conditions noted are these: rabbits, 2, 10, 50 mg/kg orally for 1 wk.

For the compound `Cc1ccc(C2=CCC(C)(C)c3ccc(C#Cc4ccc(C(=O)O)cc4)cc32)cc1` [AGN 193109], the pKd in [1] was 7.80; in data set [2], 8.15; in [3], 8.15. Also, the “Receptor Specificity” value in data set [4] is “pan-RAR antagonist; also recorded: RARαβγ”. In addition, the “effect on TTNPB toxicity (cutaneous irritation, weight loss, mortality)” value in [5] is reported as “counteracts the toxicity symptoms”. The “hormone action of RA in skin” value (later in development, single oral dose of 100 mg/kg) is “suppresses the hormone action of RA in skin”. In addition, the placental transfer result (pregnant mouse) is on record as “readily crosses the placenta”. Also, the “antagonism of retinoid-specific events in craniofacial development” value (pregnant mouse, 1 mg/kg single oral dose) is on record as “sufficient to antagonize retinoid-specific events in craniofacial development”. Further, the partial agonist activity entry in data set [6] is reported as “did not have partial agonist activity”. For the same compound, the “retinoid-mediated activities (proliferation, keratin & RARβ gene expression)” value in data set [6] (10 nM, 100 nM) is reported as “suppresses retinoid-mediated activities”.

As for `Cc1ccc(C2=CC(C)(C)Oc3c(Br)cc(C(=O)Nc4ccc(C(=O)O)c(F)c4)cc32)cc1` [AGN 194301], the pKd is 8.52 in data set [1], 6.49 in [2] and 5.14 in data set [3]. In addition, the “Receptor Specificity” value in [4] is “RARα”. For the same compound, in data set [7] (1 μM), the “differentiation of limb bud chondrocytes, Sox9 induction” value was “overcome RA signaling and permit the differentiation of mouse limb bud chondrocytes”.

Turning to `CCc1ccc(C2=CC(C)(C)Sc3ccc(C#Cc4ccc(C(=O)O)cc4)cc32)cc1` [AGN 194310], the negative-log Kd (pKd) was 8.52 in data set [1], 8.70 in data set [2] and 8.30 in data set [3]. Moreover, the “Receptor Specificity” value in [4] is listed as “pan-RAR antagonist; also recorded: RARαβγ”. The “frequency of bone marrow granulocytic precursors” value in [8] was “sufficient to elevate the frequency of bone marrow granulocytic precursors”. Moreover, in data set [8], the “signs of ill health or abnormal pathology” value is “did not show signs of ill health or abnormal pathology”. Besides, in [7] (50 nM), the “differentiation of limb bud chondrocytes, Sox9 induction” value is “overcome RA signaling and permit the differentiation of mouse limb bud chondrocytes”. Moreover, in data set [9], the “potency relative to all-trans-retinoic acid” value is given as 12-22 times.

`CC1=C(/C=C/C(C)=C/C=C/C(C)=C/C(=O)O)C(C)(C)CCC1` [All-trans-retinoic acid]: the “Receptor Specificity” value in data set [4] is given as “RARαβγ”.

Consider `CC1(C)CC=C(c2cnc3ccccc3c2)c2cc(C(=O)Nc3ccc(C(=O)O)cc3)ccc21` [BMS 614], for which, in [1], the negative-log Kd (pKd) is 8.60. For the same compound, in data set [2], the “RARβ Kd” value is recorded as “not bound”. The “RARγ Kd” value in data set [3] was “not bound”. Also, in data set [10], the “agonist or antagonist action at RARα” value was “antagonist” and the “molar excess to RA at which RARα transactivation is antagonised” value is 100 fold. The “antagonism of RARβ transactivation” value in data set [11] was “at best modestly”. In [12], the “antagonism of RARγ transactivation” value is reported as “no antagonism”. Besides, the “Receptor Specificity” value in data set [4] is reported as “RARα”.

Consider `CC1(C)CC=C(c2ccccc2)c2cc(C(=O)Nc3ccc(C(=O)O)cc3)ccc21` [BMS 185411], for which the pKd in data set [1] is approximately 6.82; in [2] it was approximately 5.89; in data set [3], approximately 4.70. In addition, the “agonist or antagonist action at RARα” value in [10] is reported as “antagonist”. For the same compound, the “agonist or antagonist action at RARβ” value in data set [11] is “agonist”. The “agonist or antagonist action at RARγ” value in data set [12] was “weak agonist”. Further, the “Receptor Specificity” value in [4] is “RARα”. Besides, the “activity in the acute promyelocytic leukemia assay” value in [13] was “no activity”.

Regarding `O=C(O)c1ccc2cc(-c3ccc(O)c(C45CC6CC(CC(C6)C4)C5)c3)ccc2c1` [CD437], in data set [14], the “binding to RARs and RXRs” value is on record as “weakly bind”.

Take `CC1=C(/C=C/C(C)=C/C=C/C(C)=C/C(=O)Nc2ccc(O)cc2)C(C)(C)CCC1` [Fenretinide, N-[4-hydroxyphenyl]retinamide]: in data set [14], the “binding to RARs and RXRs” value is recorded as “weakly bind”. In addition, the “binding to RARs and RXRs” value in data set [14] (listed as 4-hydroxphenylretinamide) was “weakly”. In data set [15], the “concentrations of vitamin A and RBP in the bloodstream” value is “lower the concentrations of both vitamin A and retinol binding protein (RBP)”; the “symptoms of vitamin A insufficiency” value was “impaired dark vision adaptation and epithelial keratosis”. The “binding to RBP and effect on RBP-TTR” value in [16] is reported as “binds to RBP, displacing RBP from transthyretin (TTR)”. Further, in data set [17], the “trans-activation of the nuclear retinoid receptors” value is recorded as “poorly trans-activates the nuclear retinoid receptors”.

Consider `CCCCCCCOc1cc2c(cc1/C(C)=C/c1ccc(C(=O)O)cc1)C(C)(C)CCS2(=O)=O` [Ro 41-5253], for which the figures for the pKd in data set [1], in data set [2] and in data set [3] were 7.22, 5.62 and 5.48, respectively. In addition, the “Receptor Specificity” value in [4] is “RARα”.

With `CCCCCCCOc1cc2c(cc1/C(C)=C/C=C/C(C)=C/C(=O)O)C(C)(C)CCS2(=O)=O` [Ro 46-5471], the pKd in data set [1] is 7.57; in data set [2] it was 5.29; in data set [3], 6.62. Further, in [4], the “Receptor Specificity” value is “RARα”.

Take BMS 189453: the pKd in [1] was approximately 7.82; in data set [3] it was approximately 7.70. For the same compound, the “agonist or antagonist action at RARα” value in [10] is “antagonist”. In data set [11], the “agonist or antagonist action at RARβ” value is listed as “weak RARβ agonist”. Moreover, the “agonist or antagonist action at RARγ” value in [12] is given as “antagonist”. Moreover, the “Receptor Specificity” value in data set [4] was “RARαγ”. In addition, the “transactivation of the RARs” value in data set [18] is reported as “does not transactivate the RARs”. The AP-1 activity result in data set [19] was “represses AP-1 activity”. In addition, the effect on myocardiogenesis entry in data set [20] is recorded as “suppress myocardiogenesis”. The “overt toxicity or hypovitaminosis A” value in [21] is on record as “not observed”. In addition, the “inflammation and joint erosion” value in data set [21] (mouse and rat, two models) was “delayed the onset, severity, and progression of inflammation and joint erosion”. In data set [22], the “gene expression of pro-inflammatory collagenase” value is “suppresses gene expression of pro-inflammatory collagenase”. In [23], the “mammary epithelial cell growth” value is listed as “inhibits mammary epithelial cell growth”. Besides, the “progression of experimental glomerulonephritis” value in data set [24] is “reduce the progression of experimental glomerulonephritis”. Besides, the “toxicity (eating or drinking, posturing or behavior, weight loss)” value in data set [24] was “did not show toxicity”. For the same compound, the overt toxicity result in data set [25] (2, 10, 50 mg/kg doses) is on record as “not overtly toxic”; in [25] (rats, 240 mg/kg daily for 30 days) it was “Overt toxicity was observed”. Moreover, in data set [25] (30 days after ceasing treatment, 2-50 mg/kg), the “testicular atrophy after ceasing treatment” value is reported as “testicular atrophy was seen at even low doses”. For the same compound, the testicular toxicity result in data set [25] (rats, 2, 10, 50 mg/kg for 1, 3, 7 days) is “caused the atrophy and degeneration of testicular cells”; in data set [26], “caused the atrophy and degeneration of testicular cells”.

In general, pKd refers to −log10 of the Kd, conventionally taken in molar units.
